Data: patent US20230017266A1, “Cyclooxygenase-2 Inhibition for the Treatment of SAA-high Asthma” (THE USA, AS REPRESENTED BY THE SECRETARY, DEPT. OF HEALTH …, priority 2019, published 2023)

Key:
Format in all cases: cell-based, human
Details in all cases: diclofenac 1 mM, 24 h
CD14^+ monocytes [1] = test: HDL+SAA1-induced cytokine secretion by ex vivo CD14+ monocytes (ELISA)
Experimental: Isolation of Peripheral Blood Monocytes. Peripheral blood monocytes were isolated using a two-step process. Peripheral blood was diluted with PBS at a 1:1 ratio, slowly overlaid onto 30 ml of Lymphoprep™ (catalog #07811, StemCell Technologies, Vancouver Canada) in a 50 ml conical tube, and centrifuged at 400×g for 25 min without braking. The peripheral blood mononuclear cell (PBMC) layer was carefully transferred to another 50 ml conical tube, washed with PBS, followed by two washes with FACS buffer (0.5 mM EDTA, 1% BSA, and 1% mouse serum in PBS). Monocytes subsets were identified and sorted by flow cytometry using the following antibodies: PE mouse anti-human CD45 clone HI30 (catalog #555483), BV421 mouse anti-human CD14 clone MφP9 (catalog #563743), and FITC mouse anti-human CD16 clone B73.1 (catalog #561308), and a FACS ARIA Fusion sorter equipped with 355, 407, 488, 532 and 640 nm LASER lines using FACS DIVA 8.0 software (all from BD Biosciences, San Jose, Calif.). The gating strategy identified a population of debris-free, single, live, ^SSCmoderate/high, CD45^+ cells from which CD14^+/CD16^− (classical), CD14^+/CD16^+ (intermediate), CD14^dim/CD16^+ (non-classical), and CD14^+ (classical and intermediate) cells were sorted and utilized for experiments, as indicated (Supplemental FIG. 4).
HDL+SAA1 Stimulation of Peripheral Blood Monocytes Subsets. […] As previously described, normal HDL was isolated from plasma obtained from healthy subjects by sequential KBr differential gradient ultracentrifugation at 330,000 g and extensive dialysis with 50 mM HEPES, 50 mM NaCL, 5 mM MgCl2 and 2 mM CaCl2, pH 7.0, at 4° C. Normal HDL was complexed with recombinant human serum amyloid A-1 at a 2:1 ratio by mixing and incubated at RT overnight to generate HDL+SAA1, which was filtered using a 100-kDa exclusion filter (Amicon Ultra Centrifuge Filters, Millipore, Darmstadt, Germany) to remove any uncomplexed SAA1. Normal HDL was also complexed with the amount of lipopolysaccharide (catalog # L4391, E. coli 0111:B4, y-irradiated, MilliporeSigma, St. Louis, Mo.) present in recombinant human SAA1. Additionally, classical CD14^+ monocytes were treated with the P2X7R antagonist, A438079, the IKK inhibitor, BAY-11-7082, the IKKβ (IKK-2) inhibitor, TPCA-1, or the selective COX-2 inhibitor, celexocib, all from MilliporeSigma(St. Louis, Mo.). Cells were also treated with the FPR2 antagonist, WRW4, or diclofenac from Tocris (Minneapolis, Minn.). The amount of IL-1β, IL-6, TNF-α and IL-10 secreted into cell culture supernatants was quantified using human DuoSet ELISA kits (R&D Systems) and data were acquired using a SpectraMax M2 spectrophotometer (Molecular Devices, San Jose, Calif.). Western blotting, as previously described^43, was performed using antibodies directed against COX-1 (catalog #160110) and COX-2 (catalog #160112), both from Cayman Chemical (Ann Arbor, Mich.). Equivalency of protein loading was established using an antibody directed against GAPDH (catalog #MAB5718) from R&D Systems (Minneapolis, Minn.). Western blots images were captured using an iBright FL1000 Western Blot Imaging System (ThermoFisher Scientific, Waltham, Mass.) and quantified using NIH ImageJ software (imagej.nih.gov). […]

CD14^+ monocytes [2] = test: PGE2 and TXB2 secreted by CD14+ monocytes cultured with HDL+SAA1
Text: FIG. 4 illustrates that HDL enriched with serum amyloid A (HDL+SAA1) induces cytokine secretion from CD14+ monocytes via a P2X7R/NF-κB/COX-2-dependent pathway. a, Volcano plot showing differentially expressed mRNA transcripts from classical CD14+/CD16− monocytes from asthmatics (n=10) that were stimulated ex vivo with or without HDL enriched with recombinant human SAA1 (HDL+SAA1). Additional experiments utilized ex vivo cultures of CD14^+ monocytes isolated by flow cytometry from healthy subjects to characterize the HDL+SAA1-mediated P2X7R/NF-κB/COX-2-dependent pathway, except where indicated. b, PTGS2 mRNA levels were quantified by qRT-PCR in cells stimulated with normal HDL or HDL+SAA1 and presented as RQ (relative quantification). n=7 subjects, pairwise comparisons of all groups vs. media, repeated measures one-way ANOVA with Dunnett's multiple comparisons test. c, Western blot showing COX-1 and COX-2 protein in cells stimulated with normal HDL or HDL+SAA1. GAPDH is shown as a control for equivalency of protein loading. The Western blot shown is representative of 3 independent experiments using cells from different subjects. […]

CD14^+ monocytes [3] = test: HDL+SAA1-induced cytokine secretion by ex vivo CD14+ monocytes (ELISA); remark: listed apart in the source

For `O=C(O)Cc1ccccc1Nc1c(Cl)cccc1Cl` [diclofenac, 2-[(2,6-dichlorophenyl)amino] benzeneacetic acid], the “HDL+SAA1-mediated secretion of IL-6” value (CD14^+ monocytes [1]) was “significantly inhibited”, the “HDL+SAA1-mediated secretion of IL-10” value (CD14^+ monocytes [1]) was “significantly inhibited” and the “HDL+SAA1-mediated secretion of TNF-α” value (CD14^+ monocytes [1]) was “significantly inhibited”. For the same compound, the “HDL+SAA1-induced increase in prostaglandin E2” value (CD14^+ monocytes [2]) was “suppressed”, the “HDL+SAA1-induced increase in thromboxane B2” value (CD14^+ monocytes [2]) was “suppressed” and the “HDL+SAA1-mediated secretion of IL-13” value (CD14^+ monocytes [3]) was “significantly inhibited”.
